We go through 15 compounds from patent publication US20240246968A1, “SMALL MOLECULE INHIBITORS OF KRAS G12C MUTANT” (Merck Sharp & Dohme LLC, priority 2021, published 2024).

SMILES strings stand for the structures. pIC50: −log10 of the molar value.

Experiment [1] addresses Gppcp-bound recombinant K-Ras4B G12C mutant protein (amino acids 1-169, C51S/C80L/C118S) (Homo sapiens, UniProt P01116, C118S/C51S/C80L/G12C). Description: KRASG12C binding assay (LC-MS, compound binding rate). Conditions: test compound final concentration 0.5 μM, 25° C., 1 hour. The procedure, abridged: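 Covalent adduct formation measured by deconvoluted intact-mass LC-MS after 1 h at 25 °C with compound at 0.5 μM final and 50 nM Gppcp-loaded KRAS G12C (residues 1-169, C51S/C80L/C118S). Buffer: TBS, 0.1 mM TCEP, 0.25 mM MgCl2, 50 μM Gppcp. Binding % = one-molecule adduct/(unbound + all adducts), binned A ≥80, B 60–80, C 40–60, D 20–40, E <20.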

Experiment [2] deals with T1, interaction between recombinant K-Ras4B G12C mutant protein and cRAF RAS-binding domain (cRAF-RBD) (Homo sapiens, UniProt P01116, G12C).
T1 construct: made in house; host or cells: E. coli
The experiment can be described thus: Inhibitory activity on interaction between KRAS G12C and cRAF (Alpha technology). It counts as biochemical. Conditions: GMPPNP-bound KRAS G12C incubated with compound at 25° C. for 1 hour, then cRAF-RBD; Alpha signal. Summed up: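 Alpha readout of cRAF-RBD (aa 50-132) binding to KRAS G12C (aa 1-169) after 1.5 h RT, following 1 h, 25° C compound preincubation with GMPPNP-bound protein (pH 7.5 Tris, 1 mM MgCl2, TCEP, Tween 20). IC50 fitted from titrations, with GDP-bound KRAS as 100% and DMSO as 0% inhibition.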

The test system of experiment [3] is MIA PaCa-2 cells. The experiment can be described thus: Growth inhibition activity on KRAS-G12C mutant cell line (MIA PaCa-2), CellTiter-Glo 3D. The experiment is classed as cell-based, human. Conditions: MIA PaCa-2, 3-day culture with compound. Summed up:
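Luminescence readout (CellTiter-Glo 3D) after 3 days of compound treatment at 37 °C, 5% CO2, 0.2% final DMSO, gave % growth inhibition versus no-compound wells, from which IC50 (nM) was derived; cells had been plated in 10% FBS RPMI1640 one day before dosing.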

For `COc1cc2c(cc1-c1cccn3c(C(=O)c4cc(F)c(NC(=O)/C=C/CNC(C)(C)C)c(F)c4)ccc13)nc(C)n2C` [Example 5, (E)-4-(tert-butylamino)-N-(2,6-difluoro-4-(8-(6-methoxy-1,2-dimethyl-1H-benzo[d]imidazol-5-yl)indolizine-3-carbonyl)phenyl)but-2-enamide], the binding rate entry in experiment [1] is “A (A binding rate of 80% or more is rated “A”)”. Further, the pIC50 in experiment [2] was 7.12; in experiment [3] (Homo sapiens, MIA PaCa-2, 72 h), 7.35.
As to `Cc1nc2c(Cl)c(-c3cccn4c(C(=O)c5cc(F)c(NC(=O)/C=C/CNC6CCOCC6)c(F)c5)ccc34)c(C(F)(F)F)cc2n1C` (single isomer, unassigned) [Example 57-1, (E)-N-(4-(8-(4-chloro-1,2-dimethyl-6-(trifluoromethyl)-1H-benzo[d]imidazol-5-yl)indolizine-3-carbonyl)-2,6-difluorophenyl)-4-((tetrahydro-2H-pyran-4-yl)amino)but-2-enamide], in experiment [1], the binding rate entry was “A (A binding rate of 80% or more is rated “A”)”. The pIC50 in experiment [2] was 7.37; in experiment [3], 7.70.
For `Cc1nc2cc(-c3cccn4c(C(=O)c5cc(F)c(NC(=O)/C=C/CNC6(CO)CCOCC6)c(F)c5)ccc34)c(C(F)(F)F)cc2n1C` [Example 70, (E)-N-(4-(8-(1,2-dimethyl-6-(trifluoromethyl)-1H-benzo[d]imidazol-5-yl)indolizine-3-carbonyl)-2,6-difluorophenyl)-4-((4-(hydroxymethyl)tetrahydro-2H-pyran-4-yl)amino)but-2-enamide], in experiment [1], the binding rate entry was “A (A binding rate of 80% or more is rated “A”)”. The pIC50 in experiment [2] was 7.15; in experiment [3] (Homo sapiens, MIA PaCa-2, 72 h) it was 6.68.
`CO[C@H]1CC[C@H](NC/C=C/C(=O)Nc2c(F)cc(C(=O)c3ccc4c(-c5cc6nc(C)n(C)c6cc5C(F)(F)F)nccn34)cc2F)CC1` [Example 115, (E)-N-(4-(1-(1,2-dimethyl-6-(trifluoromethyl)-1H-benzo[d]imidazol-5-yl)pyrrolo[1,2-a]pyrazine-6-carbonyl)-2,6-difluorophenyl)-4-(((1r,4r)-4-methoxycyclohexyl)amino)but-2-enamide]: the binding rate result in experiment [1] is “B (a binding rate of 60% or more and less than 80% is rated “B”)”. Further, the pIC50 in experiment [2] is 6.34; in experiment [3] (Homo sapiens, MIA PaCa-2, 72 h), 6.60.
Take `CCc1cc2c(ncn2C)c(Cl)c1-c1cccn2c(C(=O)c3cc(F)c(NC(=O)/C=C/CN[C@H]4CC[C@H](OC)CC4)c(F)c3)ccc12` [Example 10, (E)-N-(4-(8-(4-chloro-6-ethyl-1-methyl-1H-benzo[d]imidazol-5-yl)indolizine-3-carbonyl)-2,6-difluorophenyl)-4-(((1r,4r)-4-methoxycyclohexyl)amino)but-2-enamide]: the binding rate result in experiment [1] is “A (A binding rate of 80% or more is rated “A”)”. In addition, the pIC50 in experiment [2] was 7.16; in experiment [3] (Homo sapiens, MIA PaCa-2, 72 h), 7.03.
For `CO[C@H]1CC[C@H](NC/C=C/C(=O)Nc2c(F)cc(C(=O)c3ccc4c(-c5c(Cl)cc6c(ncn6C)c5Cl)cccn34)cc2F)CC1` (single isomer, unassigned) [Example 15-2, (E)-N-(4-(8-(4,6-dichloro-1-methyl-1H-benzo[d]imidazol-5-yl)indolizine-3-carbonyl)-2,6-difluorophenyl)-4-(((1r,4r)-4-methoxycyclohexyl)amino)but-2-enamide], in experiment [1], the binding rate result was “A (A binding rate of 80% or more is rated “A”)”. Moreover, the pIC50 was 6.72 in experiment [2] and 6.66 in experiment [3].
`Cc1cc2c(nc(CC#N)n2C)c(Cl)c1-c1cccn2c(C(=O)c3cc(F)c(NC(=O)/C=C/CNC(C)(C)C)c(F)c3)ccc12` [Example 74, (E)-4-(tert-butylamino)-N-(4-(8-(4-chloro-2-(cyanomethyl)-1,6-dimethyl-1H-benzo[d]imidazol-5-yl)indolizine-3-carbonyl)-2,6-difluorophenyl)but-2-enamide]: the binding rate result in experiment [1] is listed as “A (A binding rate of 80% or more is rated “A”)”. Further, the pIC50 in experiment [2] is 7.19; in experiment [3] (Homo sapiens, MIA PaCa-2, 72 h) it was 7.19.
Turning to `C=Cc1cc(C(=O)c2cc(F)c(NC(=O)/C=C/CNC3(C)CC3)c(F)c2)n2cccc(-c3c(OC)cc4c(nc(C)n4C)c3F)c12` (single isomer, unassigned) [Example 111-2, (E)-N-(2,6-difluoro-4-(8-(4-fluoro-6-methoxy-1,2-dimethyl-1H-benzo[d]imidazol-5-yl)-1-vinylindolizine-3-carbonyl)phenyl)-44-((1-methylcyclopropyl)amino)but-2-enamide], the binding rate result in experiment [1] is reported as “A (A binding rate of 80% or more is rated “A”)”. Moreover, the values for the pIC50 in experiment [2] and in experiment [3] were 7.76 and 6.72, respectively.
For `CO[C@H]1CC[C@H](NC/C=C/C(=O)Nc2c(F)cc(C(=O)c3ccc4c(-c5c(C)cc6c(ncn6C)c5C)cccn34)cc2F)CC1` (single isomer, unassigned) [Example 34-1, (E)-N-(2,6-difluoro-4-(8-(1,4,6-trimethyl-1H-benzo[d]imidazol-5-yl)indolizine-3-carbonyl)phenyl)-4-(((1r,4r)-4-methoxycyclohexyl)amino)but-2-enamide] the same measures were “A (A binding rate of 80% or more is rated “A”)”, 7.03 and 6.89.
For `COc1c(-c2cccn3c(C(=O)c4cc(F)c(NC(=O)/C=C/CNC5(C)CC5)c(F)c4)c(C)nc23)c(C(F)(F)F)cc2c1nc(C)n2C` (single isomer, unassigned) [Example 109-1, (E)-N-(2,6-difluoro-4(8-(4-methoxy-1,2-dimethyl-6-(trifluoromethyl)-1H-benzo[d]imidazol-5-yl)-2-methylimidazo[1,2-a]pyridine-3-carbonyl)phenyl)-4-((1-methylcyclopropyl)amino)but-2-enamide] the same measures were “A (A binding rate of 80% or more is rated “A”)”, 7.72 and 7.67.
Regarding `CO[C@H]1CC[C@H](NC/C=C/C(=O)Nc2c(F)cc(C(=O)c3ccc4c(-c5cc6nc(C)n(C)c6cc5C(F)(F)F)cccn34)cc2F)CC1` [Example 2, (E)-N-(4-(8-(1,2-dimethyl-6-(trifluoromethyl)-1H-benzo[d]imidazol-5-yl)indolizine-3-carbonyl)-2,6-difluorophenyl)-4-(((1r,4r)-4-methoxycyclohexyl)amino)but-2-enamide], the binding rate result in experiment [1] is listed as “A (A binding rate of 80% or more is rated “A”)”. Also, the pIC50 in experiment [2] is 7.22; in experiment [3] (Homo sapiens, MIA PaCa-2, 72 h), 7.24.
For the compound `Cc1nc2cc(-c3cccn4c(C(=O)c5cc(F)c(NC(=O)/C=C/CNC6CCN(C)C(=O)C6)c(F)c5)ccc34)c(C(F)(F)F)cc2n1C` (stereo not drawn) [Example 72, (E)-N-(4-(8-(1,2-dimethyl-6-(trifluoromethyl)-1H-benzo[d]imidazol-5-yl)indolizine-3-carbonyl)-2,6-difluorophenyl)-4-((1-methyl-2-oxopiperidin-4-yl)amino)but-2-enamide], the binding rate result in experiment [1] is given as “A (A binding rate of 80% or more is rated “A”)”. The pIC50 was 7.05 in experiment [2] and 7.00 in experiment [3] (Homo sapiens, MIA PaCa-2, 72 h).
For the compound `CO[C@H]1CC[C@H](NC/C=C/C(=O)Nc2c(F)cc(C(=O)c3ccc4c(-c5c(C)cc6c(ncn6C)c5Cl)cccn34)cc2F)CC1` (single isomer, unassigned) [Example 12-1, (E)-N-(4-(8-(4-chloro-1,6-dimethyl-1H-benzo[d]imidazol-5-yl)indolizine-3-carbonyl)-2,6-difluorophenyl)-4-(((1r,4r)-4-methoxycyclohexyl)amino)but-2-enamide], in experiment [1], the binding rate entry was “A (A binding rate of 80% or more is rated “A”)”. Also, the pIC50 was 7.54 in experiment [2] and 7.10 in experiment [3].
On to `Cn1cnc2cc(-c3cccn4c(C(=O)c5cc(F)c(NC(=O)/C=C/CNC6CCOCC6)c(F)c5)ccc34)c(C(F)(F)F)cc21` [Example 9, (E)-N-(2,6-difluoro-4-(8-(1-methyl-6-(trifluoromethyl)-1H-benzo[d]imidazol-5-yl)indolizine-3-carbonyl)phenyl)-4-((tetrahydro-2H-pyran-4-yl)amino)but-2-enamide], for which the binding rate entry in experiment [1] is listed as “A (A binding rate of 80% or more is rated “A”)”. For the same compound, the pIC50 is 7.57 in experiment [2] and 7.09 in experiment [3] (Homo sapiens, MIA PaCa-2, 72 h).
Take `Cc1cc2c(nc(C)n2C)c(Cl)c1-c1cccn2c(C(=O)c3cc(F)c(NC(=O)/C=C/CNC(C)(C)C)c(F)c3)ccc12` (single isomer, unassigned) [Example 18-2, (E)-4-(tert-butylamino)-N-(4-(8-(4-chloro-1,2,6-trimethyl-1H-benzo[d]imidazol-5-yl)indolizine-3-carbonyl)-2,6-difluorophenyl)but-2-enamide]: the binding rate result in experiment [1] is reported as “A (A binding rate of 80% or more is rated “A”)”. The figures for the pIC50 in experiment [2] and in experiment [3] were 6.66 and 6.64, respectively.
